From patent publication US20170002360A1, “PROTEIN PHOSPHATASE INHIBITOR” (priority 2013, published 2017) come the findings set out here.

The subject of data set [1] is DU145 prostate cancer wild type cell line. The data set can be described thus: CPT titration, loss of viability, wild-type prostate cancer cells. It is filed as cell-based. The note with it: varying concentrations of CPT; 48 hrs post CPT treatment. The protocol:
FIG. 6A: Camptothecin (CPT) treatment of DU145 prostate cancer wild-type cell line. CPT was titrated on DU145 wild-type cells and 48 hrs post CPT treatment, the cells were examined for the loss of viability compared to control (untreated)
(§1) In addition to the described experiments, the effect of inhibiting the phosphatase PPEF1 on characterized published drug resistant cell lines was assessed. The resistant cell lines used in these experiments were DU145/RCO.1 cells, which were kindly provided by Prof. Dr. Yves Pommier from the Laboratory of Molecular Pharmacology, Center of Cancer research, National Cancer institute, Bethesda, USA. These DU145/RCO.1 cells and their resistance to CPT) have been described Urasaki et al. (Cancer Research 61, 2001, pp. 1964-1969). Initially, DU145 prostate cancer wild type cell line was treated with varying concentrations of camptothecin (CPT).

The next data set deals with DU145/RCO.1 cells. Nature of the data set: CPT titration, loss of viability, CPT resistant cells with or without PPEF1 SiRNA. The note with it: 48 hrs post CPT treatment. It is filed as cell-based.
Excerpt: FIG. 6B: Camptothecin treatment of CPT approved resistant cells. CPT was titrated on DU145/RCO.1 cells reported to be resistant to CPT. 48 hrs post CPT treatment, the cells were examined for the loss of viability compared to control (untreated)
FIG. 6C: Camptothecin treatment of CPT approved resistant cells after PPEF1 inhibition. 24 hrs post PPEF1 SiRNA treatment, CPT was titrated on DU145/RCO.1 cells reported to be resistant to CPT. 48 hrs post CPT treatment, the cells were examined for the loss of viability compared to control (untreated)
as §1
The results of these experiments can be seen in FIG. 6c.

`CC[C@@]1(O)C(=O)OCc2c1cc1n(c2=O)Cc2cc3ccccc3nc2-1` [CPT, camptothecin]: the viability entry in data set [1] is “greatly reduced”; in the data set with DU145/RCO.1 cells (varying concentrations of CPT alone), “did not significantly change”.

For the compound “Example 2: SiRNA oligonucleotide targeting PPEF1, CAGTTCGAATCTGGTAAACAT, obtained from Qiagen (chemistry not given here)”, the “sensitivity to CPT / viability” value in the data set with DU145/RCO.1 cells (CPT titrated 24 hrs post PPEF1 SiRNA treatment) was “became sensitive and lost viability”.
